{"source": "paper PMC11238337", "about": "“Crafting Stable Antibiotic Nanoparticles via Complex Coacervation of Colistin with Block Copolymers” (Biomacromolecules, 2024)", "key": {"[1]": {"test_system": "trypsin", "assay": "Enzymatic breakdown susceptibility, SAXS read-out", "conditions": "24 h at 37 °C, enzyme:colistin ≈ 1:180", "description": "(§3) The enzymatic breakdown susceptibility was analyzed by adding proteinase K (3.4.21.64; Sigma Aldrich), subtilisin (3.4.21.62; Sigma Aldrich), and trypsin (3.4.21.4; Sigma Aldrich) to either colistin (at 3.4 mg/mL) or C3Ms at f+ = 0.50 (total concentration 5.0 mg/mL) at their suppliers’ recommended concentration/ratio for optimized breakdown (molar ratios of enzyme:colistin ≈ 1:130 for proteinase K, ≈ 1:70 for subtilisin and ≈ 1:180 for trypsin). We assessed the difference in susceptibility between noncomplexed colistin and C3Ms. Colistin solution was incubated with enzymes for 24 h at 37 °C, after which polymer solution (kept 24 h at 37 °C) was added while in the other case, premade C3Ms were incubated with enzymes for 24 h at 37 °C. These samples were analyzed using SAXS and modeled, including enzyme scattering (using the Debye form factor since the scattering was too small to use a prolate/oblate ellipsoid form factor, eq 8) to monitor the molecular weight of the complex coacervates after exposure to enzyme degradation."}, "[2]": {"test_system": "Mesenchymal stem cells (MSC)", "assay": "Toxicity assay (LDH activity, caspase-3 level in medium)", "assay_type": "cell-based, human", "conditions": "24 h, 0.7 mg/mL colistin", "protocol": "Human embryonic kidney (HEK 293 cells) (ATCC, CRL-1573) were cultured in Dulbecco’s modified Eagle medium (DMEM), low glucose (Sigma Aldrich) supplemented with 100 U/mL penicillin and 100 μg/mL streptomycin (15140-122; Gibco, Waltham), 1% GlutaMAX (35050; Gibco), and 20% fetal bovine serum (F9665; Sigma Aldrich). Mesenchymal stem cells (MSC, PT-2501; Lonza) were cultured in Mesenchymal Stem Cell Basel Medium (PT-3238; Lonza)) supplemented with MSCGM SingleQuots (PT-4105; Lonza). Human gingival keratinocytes (HGK) (PCS-200-014; ATCC) were cultured in Dermal Cell Basal Medium (PCS-200-030; ATCC) supplemented with Keratinocytes Growth Kit (PCS-200-040; ATCC). Human umbilical cord endothelial cells (HUVEC, 200p-05n; Cell Applications) were cultured in Endothelial Cell Growth Medium (211-500; Cell Applications). The cell types were seeded in 12-well culture-treated plates at a density of 4 × 10^4 cells/cm^2. Upon confluency (set at time point 0), the cells were exposed to cell-specific growth medium containing formulations with a concentration of 1.0 mg/mL total concentration (0.7 mg/mL colistin) of f+ = 0.50 C3Ms or equivalent concentrations of colistin, and polymer as a control. […] LDH activity in the cell culture media was evaluated using a cytotoxicity detection kit (11644793001; Roche). […]"}, "[3]": {"molecular_target": "T1, subtilisin (Bacillus licheniformis, UniProt P00780)", "T1 construct": "purchased Sigma Aldrich", "T1 sequence (P00780 106-379)": "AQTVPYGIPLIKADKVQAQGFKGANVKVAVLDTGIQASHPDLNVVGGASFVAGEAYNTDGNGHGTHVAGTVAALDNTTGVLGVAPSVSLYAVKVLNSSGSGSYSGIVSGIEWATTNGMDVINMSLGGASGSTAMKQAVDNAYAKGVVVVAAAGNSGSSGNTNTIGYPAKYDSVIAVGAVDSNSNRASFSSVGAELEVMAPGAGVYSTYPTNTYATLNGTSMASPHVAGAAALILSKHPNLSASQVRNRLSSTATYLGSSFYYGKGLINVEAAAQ", "assay": "Enzymatic breakdown susceptibility, SAXS read-out", "assay_type": "in vitro ADME", "conditions": "24 h at 37 °C", "description": "as §3"}, "[4]": {"test_system": "Bacillus subtilis (DSM10)", "assay": "Disk diffusion assay (DDA), control strain", "assay_type": "cell-based", "conditions": "3.0 μg colistin per disk, 24 h at 37 °C; Gram-positive negative control", "protocol": "(§1) In the DDA, the susceptibility of Escherichia coli (DSM613), Serratia indica (NCIMB 8869), Pseudomonas fluorescens (DSM20030), A. vinelandii (DSM2290), and Bacillus subtilis (DSM10) was tested. Sterile filter disks (VWR) were impregnated (using an automatic pipette) with 3.0 μg of colistin from either colistin sulfate or colistin-C3Ms (at f+ = 0.50) in a concentration above the CMC (at 1.0 mg/mL) and dried under sterile air. Bacterial plates were prepared by freshly pouring bacterial medium until it set. Second, a layer of LB medium, that was premixed with 10 μL of bacteria from overnight cultures, was added. Then, the disks were added, and the plates were incubated for 24 h at 37 °C. The sizes of the inhibition zones were measured and averaged. Experiments were performed in triplicate. With the agar broth dilution testing, it was possible to determine the MIC50 values. LB liquid media in test tubes containing equal amounts of E. coli culture (10 μL of bacteria from overnight cultures to 5 mL of media) was mixed with either colistin or colistin-C3Ms with equal colistin for a concentration between 0.0 and 50 μg/mL. The test tubes were incubated for 24 h at 37 °C and their turbidity was measured with a McFarland turbidimeter. The agar broth dilution experiments were done in duplicate. To determine the MIC50 values, curves were averaged and then fitted with a sigmoid function."}, "[5]": {"test_system": "Serratia indica (NCIMB 8869)", "assay": "Disk diffusion assay (DDA)", "assay_type": "cell-based", "conditions": "3.0 μg colistin per disk, 24 h at 37 °C", "protocol": "as §1"}, "[6]": {"test_system": "Pseudomonas fluorescens (DSM20030)", "assay": "Disk diffusion assay (DDA)", "assay_type": "cell-based", "conditions": "3.0 μg colistin per disk, 24 h at 37 °C", "protocol": "as §1"}, "[7]": {"test_system": "A. vinelandii (DSM2290)", "assay": "Disk diffusion assay (DDA)", "assay_type": "cell-based", "conditions": "3.0 μg colistin per disk, 24 h at 37 °C", "protocol": "as §1"}, "[8]": {"test_system": "Escherichia coli (DSM613)", "assay": "Disk diffusion assay (DDA)", "assay_type": "cell-based", "conditions": "3.0 μg colistin per disk, 24 h at 37 °C, triplicate, averaged", "protocol": "as §1"}, "[9]": {"molecular_target": "T2, proteinase K (Parengyodontium album, UniProt P06873)", "T2 construct": "purchased Sigma Aldrich", "T2 sequence (P06873 106-384)": "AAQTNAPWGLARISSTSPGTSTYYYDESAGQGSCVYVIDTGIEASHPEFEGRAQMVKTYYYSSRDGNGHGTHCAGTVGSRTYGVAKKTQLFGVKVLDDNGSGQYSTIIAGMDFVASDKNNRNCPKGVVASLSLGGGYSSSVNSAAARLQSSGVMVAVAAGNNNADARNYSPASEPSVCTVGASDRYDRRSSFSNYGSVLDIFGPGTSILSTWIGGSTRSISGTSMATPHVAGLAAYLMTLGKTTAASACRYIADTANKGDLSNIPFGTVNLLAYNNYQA", "assay": "Enzymatic breakdown susceptibility, SAXS read-out", "assay_type": "in vitro ADME", "conditions": "24 h at 37 °C", "description": "as §3"}, "[10]": {"test_system": "E. coli", "assay": "Agar broth dilution testing for MIC50 (turbidity)", "assay_type": "cell-based, Escherichia coli", "conditions": "LB liquid media, 0.0-50 μg/mL colistin, 24 h at 37 °C, McFarland turbidity, duplicate, sigmoid fit; all concentrations below the CMC", "protocol": "as §1"}, "[11]": {"test_system": "Human embryonic kidney (HEK 293 cells)", "assay": "Toxicity assay (LDH activity, caspase-3 level in medium)", "assay_type": "cell-based", "protocol": "(§2) Human embryonic kidney (HEK 293 cells) (ATCC, CRL-1573) were cultured in Dulbecco’s modified Eagle medium (DMEM), low glucose (Sigma Aldrich) supplemented with 100 U/mL penicillin and 100 μg/mL streptomycin (15140-122; Gibco, Waltham), 1% GlutaMAX (35050; Gibco), and 20% fetal bovine serum (F9665; Sigma Aldrich). Mesenchymal stem cells (MSC, PT-2501; Lonza) were cultured in Mesenchymal Stem Cell Basel Medium (PT-3238; Lonza)) supplemented with MSCGM SingleQuots (PT-4105; Lonza). Human gingival keratinocytes (HGK) (PCS-200-014; ATCC) were cultured in Dermal Cell Basal Medium (PCS-200-030; ATCC) supplemented with Keratinocytes Growth Kit (PCS-200-040; ATCC). Human umbilical cord endothelial cells (HUVEC, 200p-05n; Cell Applications) were cultured in Endothelial Cell Growth Medium (211-500; Cell Applications). The cell types were seeded in 12-well culture-treated plates at a density of 4 × 10^4 cells/cm^2. Upon confluency (set at time point 0), the cells were exposed to cell-specific growth medium containing formulations with a concentration of 1.0 mg/mL total concentration (0.7 mg/mL colistin) of f+ = 0.50 C3Ms or equivalent concentrations of colistin, and polymer as a control. The medium was changed for both control cells and stimulated cells every two days, 24 h before the harvest of the medium to ensure the same window of accumulated cell-secreted factors in the media. Cytotoxicity assays on lactate dehydrogenase (LDH) activity and caspase-3 level were performed at 24, 48, and 72 h and executed in triplicate. LDH activity in the cell culture media was evaluated using a cytotoxicity detection kit (11644793001; Roche). In short, 50 μL of the collected supernatant was mixed with 50 μL of the reaction mixture and incubated in a dark room at room temperature for 30 min."}, "[12]": {"test_system": "Human gingival keratinocytes (HGK)", "assay": "Toxicity assay (LDH activity, caspase-3 level in medium)", "assay_type": "cell-based", "conditions": "24 h; 0.7 mg/mL colistin", "protocol": "as §2"}}, "data": [{"substance": "colistin sulfate", "values": [{"measurement": "breakdown by trypsin, result in words", "setting": "[1]", "value": "ineffective in breaking down colistin"}, {"measurement": "caspase-3 level versus control", "setting": "[2]", "value": "no significant difference"}, {"measurement": "LDH activity, fold change of control", "setting": "[2]; mean of 3", "value": 2, "unit": "fold"}, {"measurement": "Mw of complex coacervates after subtilisin degradation", "setting": "[3]; enzyme:colistin ≈ 1:70, colistin 3.4 mg/mL digested then complexed with polymer (without C3M protection) or premade C3Ms 5.0 mg/mL digested (with C3M protection), SAXS fit", "value": 0.042, "unit": "MDa"}, {"measurement": "factor of reduction of Mw of complex coacervates by subtilisin", "setting": "[3]; versus untreated C3Ms", "value": "≈ 50"}, {"measurement": "inhibition zone, result in words", "setting": "[4]", "value": "no inhibition zones could be observed"}, {"measurement": "inhibition zone, result in words", "setting": "[5]", "value": "grew back over the inhibition zones"}, {"measurement": "inhibition zone, result in words", "setting": "[6]", "value": "not visibly affected"}, {"measurement": "inhibition zone, result in words", "setting": "[7]", "value": "immeasurable small inhibition zones"}, {"measurement": "size of inhibition zone (ΔR)", "setting": "[8]", "value": "1.9 ± 0.1", "unit": "mm"}, {"measurement": "Mw of complex coacervates after proteinase K degradation", "setting": "[9]; enzyme:colistin ≈ 1:130, colistin 3.4 mg/mL digested then complexed with polymer (without C3M protection) or premade C3Ms 5.0 mg/mL digested (with C3M protection), SAXS fit", "value": 0.13, "unit": "MDa"}, {"measurement": "factor of reduction of average Mw of complex coacervates by proteinase K", "setting": "[9]; versus untreated C3Ms", "value": "≈ 20"}, {"measurement": "MIC50", "setting": "[10]", "value": "1.5 ± 0.1", "unit": "µg/mL"}, {"measurement": "LDH activity versus control", "setting": "[11]; 24, 48, 72 h, 0.7 mg/mL colistin", "value": "no significant differences"}, {"measurement": "caspase-3 level, fold change of control", "setting": "[11]; day one (24 h), 0.7 mg/mL colistin (1.0 mg/mL total for C3Ms), mean of 3", "value": "up to 3 fold"}, {"measurement": "LDH (necrosis), result in words", "setting": "[12]", "value": "caused necrosis (LDH)"}, {"measurement": "caspase-3 (apoptosis), result in words", "setting": "[12]", "value": "apoptosis (caspase-3)"}]}]}
